What all share (assay type): physicochemical
Data set [1] is described as follows: Storage stability of compound 1 solution (240 μg/g) in a vehicle at 55° C., HPLC assay. As to conditions: percentage of theoretical amount (240 μg/g); for concentration of compound 1, day 10: 55° C., 10 days. The procedure: Compound 1 was dissolved in a vehicle shown in table 1 below to give 240 μg/g solution (sample). The precise concentration of compound 1 in the sample was determined by means of HPLC (day 0). Then, the sample was put in a hard grass container and kept at 55° C. for 10 days, and then the precise concentration of the compound 1 in the sample was determined by means of HPLC (day 10).
The determination of the concentration of the compound in the sample was carried out as follows. About 0.2 g of the sample was mixed with exactly 2 ml of internal standard solution and then with a dissolving agent shown in Table 1 to give 5 mL of sample solution. About 12 mg of the reference standard compound 1 was weighted precisely and added with acetonitrile to give exactly 100 ml solution. Exactly 0.8 ml of the solution was obtained and added with exactly 4 ml of the internal standard solution, and then added with the dissolving agent to give 10 ml of standard solution.
The fluorescent labeling agent was added to the respective solution, stirred and stood at room temperature. Then, respective solution in an amount that theoretically gives 3.6 ng of compound 1 was loaded on the column and analyzed under the condition as follows:
Column: 5 mm×25 cm stainless steel column packed with octadecylsilane treated silica gel for HPLC (5 μm)
Mobile phase: mixture of acetonitrile HPLC grade: methanol HPLC grade: ammonium acetate (0.05 mol/L)
Detector: spectrophotofluorometer

A short description of data set [2]: Stability of soft gelatin capsule of compound 1 at 40° C. The following applies: MCT fill 240 μg/g; for conc. (% of Initial) 40° C. 2 mo: 2 months; for conc. (% of Initial) 40° C. 3 mo: 3 months. The procedure:
Sugar alcohol solution derived from corn starch in an amount shown in Table 3 was added in an appropriate amount of water, stirred and heated. Then, gelatin 100 parts by weight was added thereto to give gelatin solution. Compound 1 was dissolved in medium chain fatty acid triglyceride (USP/NF grade) to give a fill solution containing 240 μg/g of compound 1. The gelatin solution and the liquid mixture were loaded on capsule forming and filling machine to give capsule containing the fill solution therein, and the capsule was dried to give soft gelatin capsule.
The capsule was put in a sealed container and kept at 40° C. for 3 months. The concentration of compound 1 in the fill solution contained in the capsule was determined after 1, 2 and 3 months storage in the same manner as Reference Example 1.

Data set [3] is described as follows: Stability of compound 1/MCT solution (60 μg/g) kept with gelatin piece at 40° C. for 21 days. As to conditions: MCT solution, percentage of theoretical amount (60 μg/g). On the procedure:
One hundred (100) parts by weight of gelatin (type A, high bloom, SKW Biosystems #195F) and 35 parts by weight of a plasticizer shown in Table 2 were mixed in water and dried to give gelatin piece. Compound 1 was dissolved in medium chain fatty acid triglyceride (USP/NF grade) to give a liquid mixture comprising 60 μg/g of the compound. 0.5 g of the liquid mixture and 0.5 g of each gelatin piece were put together in a sealed container and kept at 40° C. for 21 days. Then, the concentration of compound 1 contained in the liquid mixture was determined in the same manner as Reference Example 1.

Setting [4] is: vehicle polyethylene glycol 400.
The mark [5] stands for this setting: capsule shell gelatin 100 / sugar alcohol solution 35 parts by weight.
[6] abbreviates: capsule shell gelatin 100 / sugar alcohol solution 45 parts by weight.
Setting [7] is: capsule shell gelatin 100 / sugar alcohol solution 55 parts by weight.

For `CCCCC(F)(F)[C@@]1(O)CC[C@H]2[C@@H](CC(=O)[C@@H]2CCCCCCC(=O)O)O1` [compound 1, 7-[(2R,4aR,5R,7aR)-2-(1,1-difluoropentyl)-2-hydroxy-6-oxooctahydrocyclopenta[b]pyran-5-yl]heptanoic acid], the “concentration of compound 1, day 10” value is reported as 78.0% in data set [1] (vehicle glycerin); 24.4% in data set [1] (vehicle hydrogenated maltose starch syrup); 90.1% in data set [1] (setting [4]); 88.6% in data set [1] (vehicle propylene glycol); 26.2% in data set [1] (vehicle sugar alcohol solution derived from corn starch (Polysorb 85/70/00)). Also, the entries for the “concentration of compound 1, day 0” value in data set [1] (vehicle glycerin), in data set [1] (setting [4]) and in data set [1] (vehicle propylene glycol) were 92.0%, 98.2% and 97.8%, respectively. For the same compound, in data set [2] (capsule shell gelatin 100 / sugar alcohol solution 35 parts by weight, 1 month), the “conc. (% of Initial) 40° C. 1 mo” value is 99.9%. The “conc. (% of Initial) 40° C. 2 mo” value in data set [2] (setting [5]) came out at 100.3%; in data set [2] (setting [6]) it was 100.5%; in data set [2] (setting [7]), 99.3%. In addition, the “conc. (% of Initial) 40° C. 3 mo” value amounted to 99.2% in data set [2] (setting [5]), 100.0% in data set [2] (setting [6]) and 100.0% in data set [2] (setting [7]). The “concentration of compound 1 after storage” value in data set [3] (gelatin piece with glycerin plasticizer (water content 23%)) was found to be 86.8%; in data set [3] (gelatin piece with sugar alcohol solution derived from corn starch as plasticizer (water content 25%)), 92.0%.

Source of the values: patent US20140287036A1, “SOFT-GELATIN CAPSULE FORMULATION” (SUCAMPO AG, priority 2006, published 2014).
